Values of other authors as cited in patent US7655212B2, “Production of silver sulfate grains using a fluorinated additive” (Eastman Kodak Company, priority 2008, dated 2010).

Assays:
Conditions in all cases: in polymethylmethacrylate bone cement at 0.5% concentration
[1] = test system: Staphylococcus aureus
[2] = test system: Pseudomonas aeruginosa
[3] = test system: Escherichia coli

[Cl][Ag] [Silver chloride]
significantly inhibit: inhibition of bacterial growth of Staphylococcus aureus [1] | inhibition of bacterial growth of Pseudomonas aeruginosa [2] | inhibition of bacterial growth of Escherichia coli [3]

O=S(=O)([O-])[O-].[Ag+].[Ag+] [silver sulfate]
significantly inhibit: inhibition of bacterial growth of Staphylococcus aureus [1] | inhibition of bacterial growth of Pseudomonas aeruginosa [2] | inhibition of bacterial growth of Escherichia coli [3]

silver oxide
significantly inhibit: inhibition of bacterial growth of Staphylococcus aureus [1] | inhibition of bacterial growth of Pseudomonas aeruginosa [2] | inhibition of bacterial growth of Escherichia coli [3]
